Measurements as given in patent publication US20260116946A1, “NOVEL CD200 FUSION PROTEINS” (DUCENTIS BIOTHERAPEUTICS LIMITED, priority 2022, published 2026).
Entries after “also recorded” stand apart in the source; their conditions may differ.

Experiments:
U937-CD200R cells [1] = assay: Cell binding to U937-CD200R cells by flow cytometry; settings: 1, 4 and 24 hours at 37° C., anti-human IgG secondary, compared to DS-155
Procedure: U937 cells were re-suspended with a density of 0.1 million cells per test with 50 μL FACS buffer (1×PBS+2% FBS).
Treatment with CD200-Fc proteins (50 μL) was performed starting from 10 μg/mL with 3-fold dilutions up to 10 concentrations with FACS buffer and incubated for 1-hour, 4-hours and 24-hours at 37° C. At the end of each time point, cells were collected and washed. 10 μg/mL of anti-human secondary antibody was added and incubated for 30 minutes at 4° C. Cells were washed post incubation and stained to check viability (1 μL dye per million cells per mL 1×PBS) for 20 minutes at 4° C. Cells were washed and fixed with Fixation buffer (100 μL per test) at 4° C. for 20 minutes. Post incubation, cells were washed and the pellet was re-suspended in FACS buffer (100 μL per test) for data acquisition on the flow cytometer.
For the 24-hour time point, treatment with CD200-Fc protein was performed with cell culture media. Wash step=addition of 200 μL FACS buffer and centrifugation at 1400 RPM.
The binding of ARQ-234 to U937-CD200R cells was compared to a wild type control CD200-Fc (DS-155) at 1, 4 and 24 hrs at human physiological temperature (37° C.) and binding was detected using flow cytometry with an anti-human IgG antibody.

human CD200R = molecular target: T1, human CD200R (Homo sapiens, UniProt Q8TD46); assay: BIAcore SPR binding of CD200-Fc to human CD200R
T1 construct: His; purchased Creative Biomart CD200R1-320H
T1 sequence (Q8TD46 25-348): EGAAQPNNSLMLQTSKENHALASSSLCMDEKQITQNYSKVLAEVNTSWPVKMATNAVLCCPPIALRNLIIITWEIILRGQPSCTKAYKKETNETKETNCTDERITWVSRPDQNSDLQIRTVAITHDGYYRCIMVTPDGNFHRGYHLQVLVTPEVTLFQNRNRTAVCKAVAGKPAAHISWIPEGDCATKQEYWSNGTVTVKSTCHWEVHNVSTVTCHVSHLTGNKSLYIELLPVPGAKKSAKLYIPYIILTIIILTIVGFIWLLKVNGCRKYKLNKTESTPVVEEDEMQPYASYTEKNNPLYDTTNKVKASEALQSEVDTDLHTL
Source text: (§1) BIAcore instrumentation uses an optical method, Surface Plasmon Resonance (SPR), to measure the binding characteristics of two interacting molecules; in this case wild-type CD200-Fc or CD200-Fc mutants binding to the CD200 receptor (CD200R). The technique measures changes in the refractive index of one of the two interacting molecules captured on a chip (sensor) when the second molecule is flowed in solution over the captured partner. In these experiments CD200-Fc was immobilized on the chip (sensor) surface and CD200R was injected in an aqueous buffer over the captured CD200-Fc under continuous flow conditions. Changes in the CD200-Fc refractive index following CD200R binding were measured in real time and the result plotted as response units (RUs) versus time to generate sensorgrams.
The experiments were performed on a GE Healthcare BIAcore T200. Human, cynomolgus and mouse CD200R proteins were purchased from Creative Biomart (CD200R1-320H, CD200R1-3483C, CD200R1-3280M). All measurements were performed in duplicate.
For human CD200 constructs: anti-human Fc (GE Healthcare) was covalently immobilized on a BIAcore CM5 sensor chip (Cytiva, BR100530) by amine coupling using a Cytiva kit (BR100839) following the manufacturer's instructions, targeting immobilization of 8,000-11,000 RU. […]
(§2) For mouse CD200 constructs, muCD200R-Fc (Creative Biomart CD200R1-458M) diluted to 1 μg/mL in running buffer was flowed over the immobilized Anti-Human IgG Fc, with CD200 monomers serially diluted and flowed over captured CD200R. […] Data analysis: experimental sensorgrams were analyzed in BIAevaluation software (GE Healthcare). […] Closeness of fit was determined by algorithms provided by the manufacturer in the BIAevaluation software, and data accepted if the Chi^2 value was less than 10% of Rmax, and the U value was less than or equal to 15.

cyno CD200R = assay: BIAcore SPR binding of CD200-Fc to cynomolgus CD200R; settings: 25° C., mean of two runs
Source text: as §1
The experiments were performed on a GE Healthcare BIAcore T200. […]
as §2

U937-CD200R cells [2] = assay: Cytokine release (IL-6 inhibition) assay, LPS stimulated U937-CD200R cells; format: cell-based, human
Procedure: Cytokine production, including IL-6, from these cells can be induced by stimulation with PMA and then LPS.
50,000 U937 cells per well were seeded in 96 well plates and differentiated following incubation for 72 hours with 100 nM PMA. Following differentiation, the PMA containing media was replaced with fresh assay media and incubated for a further 2 hours prior to treatment. CD200-Fc constructs were added with or without Fc block to the cell culture and incubated for 1 hour, then cells were stimulated with 100 ng/ml LPS and incubated for a further 24 hours. Following the final incubation, cell supernatant (diluted 1:10) was collected and assayed for IL-6 secretion by ELISA assay using a commercially available kit.
Cell line construction, cytokine inhibition testing, and cell binding testing were conducted using similar techniques as in Example 3 above.

[3] = human CD200R, 25° C., mean of two runs

- ka (cyno CD200R): 159100 M⁻¹ s⁻¹
- kd (cyno CD200R): 0.03997 s⁻¹
Substance: ARQ-234: mutated human CD200-Fc fusion protein: CD200 K130Y, I131Y directly fused to IgG4 Fc S228P, M428L, N434S
- binding to U937-CD200R cells (U937-CD200R cells [1]): superior binding of ARQ-234 to CD200R-expressing cells compared to DS-155; also recorded: more potent target engagement compared to DS-155
- ka (human CD200R; [3]): 221600 M⁻¹ s⁻¹
- kd (human CD200R; [3]): 0.0004675 s⁻¹
- fold greater affinity for human CD200 receptor than wild-type CD200-Fc (DS-155) (human CD200R; versus DS-155): approx. 84 fold
- inhibition of LPS stimulated IL-6 release (U937-CD200R cells [2]; PMA differentiated U937-CD200R cells, 100 ng/ml LPS, 24 hours, ELISA): able to inhibit LPS stimulated IL-6 secretion in a concentration dependent manner
- effect of Fc block on inhibition of IL-6 release (U937-CD200R cells [2]; with versus without Fc block reagent): No significant difference in inhibition
